Experimental findings from patent publication US9370503B1, “Compounds for treating ocular diseases” (priority 2015, dated 2016) are described below.

One data set concerns ARPE-19 cells. The data set is described as follows: NaN3-induced injury in ARPE-19 cells (MTT). The class given is cell-based, human. The settings on record: 0.03 μg/ml to 10 μg/ml compound, 72 hours. Here is the method: (§1) ARPE-19 cells were grown in DMEM/F12 medium supplemented with 10% FBS, 100 units/ml penicillin G, and 100 μg/ml streptomycin sulfate. HUVECs were grown in vascular cell basal medium supplemented with endothelial cell growth kit. Cells were incubated in a humidified incubator at 37° C. under 5% CO2 and 95% air.
(§2) MTT assay was used to measure the viability of ARPE-19 cells and HUVECs. 2×10^5 ARPE-19 cells or 5×10^4 HUVECs were seeded in 96-well plates (100 μl/well) and allowed to grow overnight. Negative control was prepared by adding 100 μl medium without cells. The cells were then treated with fresh medium with a compound of Formula (II) (“(II)”) (0.03, 0.1, 0.3, 1, 3 and 10 μg/ml) and/or oxidants (NaIO3, H2O2, t-BHP and NaN3) for 12, 24, or 72 hours (200 μl/well). The vehicle control group was treated with vehicle. 20 μl MTT (5 mg/ml) was added to wells, and incubated for another 4 h. After incubation, the medium was discarded and 100 μl DMSO was added to solubilize formazan produced from MTT by the viable cells. Absorbance was measured at 570 nm using a microplate reader (Bio-Rad Laboratories, Inc., CA). Cells viability was calculated according to the following formula: Viability of cells (%)=(absorbance in tested sample−absorbance in negative control)/(absorbance in vehicle control−absorbance in negative control)×100%.

A further data set deals with HUVECs. The data set is described as follows: NaN3-induced injury in HUVECs (MTT). Format: cell-based, human. The settings on record: 72 hours. As for the experimental part: as §1, §2
Data set [1] deals with Ocular Hypertensive Rabbit. The data set is described as follows: Ocular blood flow in ocular hypertensive rabbit (colored microspheres). Format: in vivo. The settings on record: 1% topical instillation, 30 minutes after drug instillation. As for the experimental part:
0.5% alcaine was purchased commercially. A 20% sterilized hypertonic saline solution was prepared in the laboratory. Colored microspheres were purchased from E-Z Trac (Los Angeles, Calif.). The colored microspheres were diluted with saline containing 0.01% (v/v) of Tween 80 to prevent the microspheres from sticking together. Two million microspheres in 0.4 ml were injected at each time point.
Female New Zealand white rabbits weighing 2.-3.0 kg, were purchased commercially. Animal care and treatment were followed by the institutional guidelines.
Rabbits were anesthetized with 35 mg/kg ketamine and 5 mg/kg xylazine by intramuscular injection. Half of the initial dose was given every one hour thereafter. The left ventricle was cannulated through the right carotid artery for injection of colored microspheres and the femoral artery was cannulated for collection of blood samples. The left eye was treated with one drop of proparacaine hydrochloride ophthalmic solution (Bausch & Lomb, Inc., Tampa, Fla., USA). The needle was inserted directly into the anterior chamber of the left eye, which was connected to the 40 mmHg saline manometer. The ocular hypertensive model reduced the ocular blood flow to approximately one third of the normal valued. 50 μl of 10 g/l flavone or vehicle (30% HP-β-CD solution) was instilled topically to the left eye 30 minutes after the ocular hypertensive model was built. The ocular blood flow was measured by colored microspheres at 0, 30, 60 and 120 minutes after treatment with the compounds or vehicle. At each time point, 2 million microspheres were injected as a reference, and blood samples were taken from the femoral artery for exactly one minute following injection of the microspheres. The blood sample was collected in a heparinized tube and the volume was recorded. The rabbits were euthanized with an injection of 100 mg/kg pentobarbital sodium after the last blood sampling. The left eyes were enucleated and dissected into the iris, ciliary body, retina and choroid. All the tissues were weighed.
The details of sample processing and microsphere counting were provided by E-Z Trac (Los Angeles, Calif., USA). In brief, the blood hemolysis reagent was added to the microfuge tubes with the blood sample, then vortexed and centrifuged for 30 minutes at 6000 rpm. The supernatant was removed, and then tissue/blood digest reagents I and II were added. The tubes were capped, vortexed, and centrifuged for 30 minutes. […] The number of microspheres was counted by the hemocytometer under the microscope. […] The protocol thereafter was the same as that used to process the blood samples, and the microspheres were counted.
The blood flow of each tissue at a certain time point was calculated according to the following formula: Qm=(Cm×Qr)/Cr. […]

The subject of data set [2] is rat's retinal function after ischemic insult. The data set is described as follows: b-wave recovery of retinal function after ischemic insult (ERG). Format: in vivo. The settings on record: 1% instilled topically. Here is the method:
The retinal ischemia experiment has been described previously (Chiou et al., J. Ocular Pharmacol. 9:179-185, 1993, and Chiou et al., J. Ocular Pharmacol. 10:493-498, 1994). Electroretinograms (ERG) were carried out to assess the retinal function prior to and after the ischemic insult. ERGs were recorded using Ag/AgCl electrodes placed in contact with the cornea. One stainless steel needle was inserted subcutaneously between the two eyes as a reference electrode, and another needle was inserted subcutaneously into the neck as a ground electrode. A photostimulator (Grass PS22 Flash) was used to produce flashes of light 5 inches from the eye, and the ERG potentials were recorded on a polygraph. The ERG system was purchased from LKC Technologies, Inc. (Gaithersburg, Md.). A single flash (10 msec) of white light stimuli was used to evoke ERG a- and b-waves. Peak b-wave amplitudes were measured from the trough of the a-wave to the peak of the b-wave.
Long-Evans rats (200-250 g), dark-adapted at least 2 hours, were anaesthetized intramuscularly with ketamine (35 mg/kg) plus xylazine (5 mg/kg). Half of the initial dose was administrated at one hour intervals to maintain adequate anesthesia. The pupils were dilated with 1% tropicamide (50 μl) for ERG experiments. Retinal ischemia was produced by occlusion of the central retina and posterior ciliary arteries using a ligature placed around the optic nerve and posterior ciliary artery. The ligature was drawn tightly through a micropipette tip placed at the base of the eyeball socket to occlude the retinal vessels for 30 min. After 30 min of retinal ischemia, the ligature was liberated and the retinal arteries allowed to reperfuse. ERGs were measured at 30, 60, 90, 120, 180 and 240 min thereafter. The compounds and vehicle were administered topically before occlusion of the central retinal arteries.

As to `CC(C)=CCC/C(C)=C/Cc1c([C@@H]2CC(=O)c3c(cc(O)c(CC=C(C)C)c3O)O2)ccc(O)c1O` [Formula (II)], in the data set on ARPE-19 cells, the “effect on NaN3-induced injury in ARPE-19 cells” value is listed as “significantly reversed”. The “enhancement of NaN3-induced injury in HUVECs” value in the data set with HUVECs (0.3 mM NaN3, 3 μg/ml compound) worked out at 75%; in the data set with HUVECs (0.3 mM NaN3, 10 μg/ml compound), 95%; in the data set on HUVECs (1 mM NaN3, 10 μg/ml compound), 75%; in the data set with HUVECs (3 mM NaN3, 3 μg/ml compound) it was 44%; in the data set with HUVECs (3 mM NaN3, 10 μg/ml compound), 71%. The “blood flow in choroid” value in data set [1] was “significantly increased”. The “blood flow in iris” value in data set [1] is given as “significantly increased”. The “potency in b-wave recovery” value in data set [2] is recorded as “about the same as 1% (I)”. For the same molecule, the “duration of drug action on b-wave recovery” value in data set [2] (after drug application) turned out to be 120 min.
